Assay results as given in patent US20160215306A1 (priority 2013, published 2016).
≈ marks a conversion by molar mass, not a printed value. Where two headings read alike, the source gives them in different places.

What was measured:
[1] = tested on: Glusulase; experiment: Cleavage of glucose from resveratrol glucosides by Glusulase; format: biochemical; details: 4 - Glusulase
[2] = tested on: Cellulase T. reesei; format: biochemical
[3] = biological target: T1, EXG1 (Saccharomyces cerevisiae, UniProt P23776); experiment: Cleavage of glucose from resveratrol glucosides by broth enriched with EXG1; format: biochemical, S. cerevisiae; details: 8 - EXG1 broth
T1 sequence (P23776 41-448): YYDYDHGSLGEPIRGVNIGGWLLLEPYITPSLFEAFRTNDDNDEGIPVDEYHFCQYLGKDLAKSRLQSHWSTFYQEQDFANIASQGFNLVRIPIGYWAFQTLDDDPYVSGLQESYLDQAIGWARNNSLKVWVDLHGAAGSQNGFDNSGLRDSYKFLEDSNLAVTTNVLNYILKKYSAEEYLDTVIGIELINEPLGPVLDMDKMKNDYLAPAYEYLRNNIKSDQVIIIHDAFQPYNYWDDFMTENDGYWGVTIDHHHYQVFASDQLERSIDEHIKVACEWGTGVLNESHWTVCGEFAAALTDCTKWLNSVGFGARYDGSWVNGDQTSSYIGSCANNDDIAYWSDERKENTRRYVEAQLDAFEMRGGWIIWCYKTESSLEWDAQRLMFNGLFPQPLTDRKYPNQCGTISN

[4] = tested on: β-glucuronidase; experiment: Cleavage of glucose from resveratrol glucosides by β-glucuronidase; format: biochemical; details: 7 - β-glucuronidase
[5] = tested on: Cellobiase from A. niger; format: biochemical
[6] = mouse, in vivo
[7] = tested on: recombinant β-glucosidase (GO16L, IFF); experiment: Cleavage of glucose from resveratrol glucosides by recombinant β-glucosidase; format: biochemical; details: 1 - β-glucosidase (IFF)
[8] = tested on: Depol™ cellulase (Biocatalysts); experiment: Cleavage of glucose from resveratrol glucosides by Depol cellulase; format: biochemical; details: 2 - Depol IFF (cellulase)
[9] = tested on: β-galactosidase from A. oryzae; experiment: Cleavage of glucose from resveratrol glucosides by β-galactosidase; format: biochemical; details: 6 - β-galactosidase A. oryzae
[10] = Solubility in water of purified compounds (H2O saturation, HPLC quantification); details: for solubility at 1 min: water, thermodynamic from solid
[11] = Separate experiment: plasma levels after single oral or IV administration, LC-MS; details: for Plasma level of the administered compound after IV administration / Plasma level of the administered compound after oral administration: single dose 10 mL/kg, FIG. 21
[12] = Pharmacokinetic profiling: plasma levels after single IV or oral administration; format: in vivo, CD1 male mice
[13] = tested on: EXG1; experiment: Cleavage of piceid by S. cerevisiae cells with or without EXG1; details: second S. cerevisiae strain (lacking EXG1), 125 mg/L piceid, overnight
[14] = biological target: EXG1 (Saccharomyces cerevisiae, UniProt P23776); experiment: as above; details: S. cerevisiae cells with functional EXG1, 125 mg/L piceid, overnight
[15] = in water; cited from earlier work
[16] = male, CD1, mouse, plasma, intravenous, 10 mg/kg

Compound | % cleavage in conditions tested [1] | % cleavage in conditions tested [2] | % cleavage in conditions tested [3] | % cleavage in conditions tested [4] | % cleavage in conditions tested [5] | % cleavage in conditions tested [7] | % cleavage in conditions tested [8] | % cleavage in conditions tested [9] | Plasma level of the administered compound after IV administration [11] | Plasma level of the administered compound after oral administration [11] | solubility at 1 min [10] [µg/mL] | Solubility mg/L (Literatrure) [15] [mg/L] | further results
OC[C@H]1O[C@@H](Oc2ccc(/C=C/c3cc(O)cc(O[C@@H]4O[C@H](CO)[C@@H](O)[C@H](O)[C@H]4O)c3)cc2)[C@H](O)[C@@H](O)[C@@H]1O (relative stereo) [3,4′-resveratrol diglucoside, trans-resveratrol-3,4′-di-O-β-glucoside] | ✓ (✓ = >95%) | ✓ (key: ✓ = >95%; ♦ = 50-95%; • = 5-49%; X = 0%) | ♦ (♦ = 50-95%) | ✓ (✓ = >95%) | ✓ (key: ✓ = >95%; ♦ = 50-95%; • = 5-49%; X = 0%) | ✓ (✓ = >95%) | ✓ (✓ = >95%) | ✓ (✓ = >95%) |  |  |  |  | Plasma level relative to 3,5-resveratrol diglucoside, oral ([6]; po): approximately 3 fold; Time within which compound was cleared from plasma, oral ([6]; po): ≤ 1 h
OC[C@H]1O[C@@H](Oc2ccc(/C=C/c3cc(O)cc(O)c3)cc2)[C@H](O)[C@@H](O)[C@@H]1O (relative stereo) [Resveratroloside, trans-resveratrol-4′-O-β-glucoside] | ✓ (✓ = >95%) |  | • (• = 5-49%) | ✓ (✓ = >95%) |  | ✓ (✓ = >95%) | ✓ (✓ = >95%) | ✓ (✓ = >95%) | low | low |  |  | Solubility mg/L (in house) ([10]; in nanopure H2O, HPLC): 1,300 mg/L; Plasma levels of resveratrol after administration of the glucoside ([11]; oral and IV administration): a sharp increase in resveratrol
OC[C@H]1O[C@@H](Oc2cc(O)cc(C=Cc3ccc(O)cc3)c2)[C@H](O)[C@@H](O)[C@@H]1O [Piceid, resveratrol 3-O-β-D-glucopyranoside] | ✓ (✓ = >95%) | ✓ (key: ✓ = >95%; ♦ = 50-95%; • = 5-49%; X = 0%) | ♦ (♦ = 50-95%) | ✓ (✓ = >95%) | ✓ (key: ✓ = >95%; ♦ = 50-95%; • = 5-49%; X = 0%) | ✓ (✓ = >95%) | ✓ (✓ = >95%) | ✓ (✓ = >95%) |  | detected at a low level | 200 to 300 (≈ 512 to 768 µM) | 69 (≈ 177 µM) | Detection of administered compound in plasma after IV administration ([12]; 10 mg/kg IV): detectable; Detection of administered compound in plasma after oral administration ([12]; 10 mg/kg PO): detectable; Systemic conversion to trans-resveratrol ([12]; after IV and oral administration): converted to trans-resveratrol systemically; concentration at 0.25 h ([12]; male, CD1, mouse, plasma, piceid 10 mg/kg IV, 0.25 h, read-out: Piceid (Detection of piceid) in plasma, IV): 2830 ng/mL; concentration at 0.5 h ([12]; male, CD1, mouse, plasma, piceid 10 mg/kg IV, 0.5 h, read-out: Piceid (Detection of piceid) in plasma, IV): 320 ng/mL; concentration at 1 h ([12]; male, CD1, mouse, plasma, piceid 10 mg/kg IV, read-out: Piceid (Detection of piceid) in plasma, IV): 50 ng/mL; concentration at 0.5 h ([12]; male, CD1, mouse, plasma, piceid 10 mg/kg PO, 0.5 h, read-out: Piceid (Detection of piceid) in plasma, PO): 5 ng/mL; concentration at 1 h ([12]; male, CD1, mouse, plasma, piceid 10 mg/kg PO, read-out: Piceid (Detection of piceid) in plasma, PO): 8 ng/mL; concentration at 2 h ([12]; male, CD1, mouse, plasma, piceid 10 mg/kg PO, 2 h, read-out: Piceid (Detection of piceid) in plasma, PO): 4 ng/mL; Piceid cleaved [13]: less than 0.5%; Piceid cleaved, yielding resveratrol [14]: approximately 25%; Piceid detected in plasma after IV administration ([11]; piceid 17.1 mg/kg IV): approximately 900 ng/mL
Oc1ccc(C=Cc2cc(O)cc(O)c2)cc1 [Resveratrol, 3,5,4′-trihydroxy-stilbene] |  |  |  |  |  |  |  |  | an increase in resveratrol plasma levels appeared 4 h post-administration | cleared quickly | 30 to 40 (≈ 131 to 175 µM) | 15 to 30 | concentration at 0.25 h [12, 16]: 40 ng/mL; concentration at 0.5 h [12, 16]: 4 ng/mL
cis/trans-resveratrol-3,5-di-O-β-glucoside [3,5-resveratrol diglucoside] | ✓ (✓ = >95%) | ✓ (key: ✓ = >95%; ♦ = 50-95%; • = 5-49%; X = 0%) | • (• = 5-49%) | ✓ (✓ = >95%) | ✓ (key: ✓ = >95%; ♦ = 50-95%; • = 5-49%; X = 0%) | ✓ (✓ = >95%) | ✓ (✓ = >95%) | ✓ (✓ = >95%) |  |  |  |  | Time of highest plasma level of administered compound, IV ([6]; iv): 1 h; Time within which plasma level declined, IV ([6]; iv): ≤ 4 h; Plasma level of the administered compound after oral administration ([6]; po): high levels; Time within which plasma level declined, oral ([6]; po): ≤ 3 h
